Data set [1] addresses T1, 5-HT2A (Homo sapiens, UniProt P28223). The conditions noted are these: read-out: Affinity, Ki 5-HT2A; cited from earlier work.
Data set [2] deals with 5-HT2A. The conditions noted are these: cited from earlier work; for Ki: Rat, read-out: Affinity, Ki 5-HT2A.
Data set [3] has as its target 5-HT2C. The conditions noted are these: Rat; read-out: Affinity, Ki 5-HT2C; cited from earlier work.
The target of another data set is 5-HT2A-C. On the set-up: method as in PMID 9857084. The conditions noted are these: range over 5-HT2A, 5-HT2B, 5-HT2C; read-out: Affinity in 5-HT2A-C; cited from earlier work.
Another data set has as its target 5-HT2B (Homo sapiens, UniProt P41595). Kind of data set: Competition binding with [3H]-LSD (NIMH PDSP).
Data set [4] concerns the target T2, 5-HT2C (Homo sapiens, UniProt P28335).
T2 sequence (P28335 33-458): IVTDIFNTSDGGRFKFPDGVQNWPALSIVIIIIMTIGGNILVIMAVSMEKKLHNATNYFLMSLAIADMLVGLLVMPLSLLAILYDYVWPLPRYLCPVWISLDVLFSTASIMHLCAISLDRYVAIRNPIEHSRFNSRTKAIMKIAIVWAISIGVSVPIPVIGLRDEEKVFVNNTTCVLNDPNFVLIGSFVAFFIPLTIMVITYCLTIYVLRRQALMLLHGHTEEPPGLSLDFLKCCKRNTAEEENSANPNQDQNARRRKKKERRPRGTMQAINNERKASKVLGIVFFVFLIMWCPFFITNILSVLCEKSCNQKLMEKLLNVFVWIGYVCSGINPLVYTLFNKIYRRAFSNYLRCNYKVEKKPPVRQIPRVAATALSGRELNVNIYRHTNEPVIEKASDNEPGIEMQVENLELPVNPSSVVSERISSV
Kind of data set: Competition binding with [3H]-mesulergine (NIMH PDSP).

The target in data set [5] is T1, 5-HT2A. Put plainly: Competition binding with [3H]-ketanserin (NIMH PDSP).
Setting [6] is: Affinity, Ki 5-HT2B, radioligand [3H]-LSD.

Structures can show the parent of a compound that is named as a salt. Where two headings read alike, the source gives them in different places.

5-HT2B, sequence (P41595 whole entry): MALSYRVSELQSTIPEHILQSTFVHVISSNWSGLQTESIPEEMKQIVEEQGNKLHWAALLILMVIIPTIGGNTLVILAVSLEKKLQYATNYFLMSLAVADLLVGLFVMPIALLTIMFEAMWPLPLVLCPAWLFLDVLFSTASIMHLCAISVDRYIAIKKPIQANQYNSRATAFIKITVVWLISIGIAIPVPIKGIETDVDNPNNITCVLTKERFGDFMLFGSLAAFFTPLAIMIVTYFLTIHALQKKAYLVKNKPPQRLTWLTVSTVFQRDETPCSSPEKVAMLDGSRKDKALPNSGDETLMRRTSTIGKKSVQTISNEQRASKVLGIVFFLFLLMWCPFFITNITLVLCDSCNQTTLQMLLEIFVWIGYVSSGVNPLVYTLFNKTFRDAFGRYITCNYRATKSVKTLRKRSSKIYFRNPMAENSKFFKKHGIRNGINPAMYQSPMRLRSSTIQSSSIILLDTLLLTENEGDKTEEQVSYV
T1 sequence (P28223 whole entry): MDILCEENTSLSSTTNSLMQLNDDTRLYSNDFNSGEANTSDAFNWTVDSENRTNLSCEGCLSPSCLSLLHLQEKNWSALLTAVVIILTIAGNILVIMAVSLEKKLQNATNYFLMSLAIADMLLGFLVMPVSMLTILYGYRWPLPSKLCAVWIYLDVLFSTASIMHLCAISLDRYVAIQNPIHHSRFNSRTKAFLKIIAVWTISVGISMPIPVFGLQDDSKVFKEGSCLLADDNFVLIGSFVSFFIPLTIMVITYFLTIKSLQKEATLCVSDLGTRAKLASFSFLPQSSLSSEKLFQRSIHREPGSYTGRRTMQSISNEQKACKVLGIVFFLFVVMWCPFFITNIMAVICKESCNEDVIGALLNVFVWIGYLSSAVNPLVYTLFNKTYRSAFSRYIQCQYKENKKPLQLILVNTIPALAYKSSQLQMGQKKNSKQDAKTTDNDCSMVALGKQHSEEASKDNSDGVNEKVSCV

With `COc1cc2c(cc1Br)OCC2CN` (stereo not shown) (as salt: hydrochloride) [Compound 9, (6-Bromo-5-methoxy-2,3-dihydrobenzofuran-3-yl)methanamine], the melting point is 232 to 234 °C (dec.).
On to `COc1cc2c(cc1Br)OCCCC2CN` (stereo not shown) (as salt: hydrochloride) [Compound 11, (8-Bromo-7-methoxy-2,3,4,5-tetrahydrobenzo[b]oxepin-5-yl)methanamine], for which the melting point lay in the range of 224 to 226 °C.
Take `COc1cc(CCN)c(OC)cc1Br` [Compound 1a, 2C-B]: on 5-HT2A [1], the Ki was 0.88 nM.
Regarding `COc1cc(CC(C)N)c(OC)cc1Br` (stereo not shown) [Compound 1b, DOB], the Ki on 5-HT2A [2] is […]; at 5-HT2C [3] it was 2.82 nM.
With `NCCc1c2c(c(Br)c3c1OCCC3)OCCC2` [Compound 3a, 2C-B-butterfly], the Ki at 5-HT2A [2] was 1.76 nM; at 5-HT2C [3], 1.52 nM.
As for `CC(N)Cc1c2c(c(Br)c3c1OCCC3)OCCC2` (stereo not shown) [Compound 3b, DOB-butterfly], the Ki at 5-HT2A [2] is 3.87 nM; on 5-HT2C [3], 1.85 nM.
For the compound `CC(N)Cc1c2ccoc2c(Br)c2ccoc12` (stereo not shown) [Compound 4, Bromo-DragonFLY], on 5-HT2A-C, the Ki was 0.02 to 0.19 nM.
For `COc1cc(Br)c(OC)c2c1C(CN)CC2` (stereo not shown) [Compound 7], the Ki on 5-HT2A [1] was 47 nM.
Regarding `COc1cc2c(cc1Br)OCCC(N)C2` (stereo not shown) [Compound 8], the “Fold lower affinity than the unconstrained reference DOB” value in the data set on 5-HT2A [2] (5-HT2A) was 373 fold. Also, at 5-HT2A [2], the Ki is 422 nM.
Regarding `COc1cc2c(cc1Br)OCC2CN` (stereo not shown) [Compound 9, (6-Bromo-5-methoxy-2,3-dihydrobenzofuran-3-yl)methanamine], the Ki was 196 ± 28 nM on 5-HT2B (setting [6]), 135 ± 31 nM on 5-HT2C [4] and 1040 ± 188 nM at 5-HT2A [5].
For the compound `COc1cc2c(cc1Br)OCCCC2CN` (stereo not shown) [Compound 11, (8-Bromo-7-methoxy-2,3,4,5-tetrahydrobenzo[b]oxepin-5-yl)methanamine], the Ki was 1900 nM at 5-HT2B (Affinity for 5-HT2B, radioligand [3H]-LSD); 1870 ± 345 nM at 5-HT2B (setting [6]); greater than 10000 nM at 5-HT2C [4]; greater than 10000 nM on 5-HT2A [5]. Moreover, the “Affinity, Ki 5-HT2C” value on 5-HT2C [4] (Human, radioligand [3H]-mesulergine) is “inactive”. Also, the “Affinity, Ki 5-HT2A” value on 5-HT2A [5] (Human, radioligand [3H]-ketanserin) is “inactive”.
“(6-Methoxychroman-4-yl)methanamine [Compound 10]”: the Ki at 5-HT2B (read-out: Affinity, Ki 5-HT2B, radioligand [3H]-LSD) is 70 ± 13 nM; on 5-HT2C [4] (read-out: Affinity, Ki 5-HT2C, Human, radioligand [3H]-mesulergine) it was 124 ± 9 nM; on 5-HT2A [5] (read-out: Affinity, Ki 5-HT2A, Human, radioligand [3H]-ketanserin), 847 ± 79 nM.

Source of the values: publication PMC3820707, “Structure-Activity Relationships of Constrained Phenylethylamine Ligands for the Serotonin 5-HT2 Receptors” (PLoS ONE, 2013).
